Measured values: ChEMBL document CHEMBL1201862, “PubChem BioAssay data set” (2004)
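Dose response: 5 concentrations. Exposure: 48 h. Format: 96-well plates. Endpoint: linear interpolation; highest concentration if not reached. GI50 marks 50% less growth.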 Active and inactive are the calls of the source. Rule as the data show it: active = GI50 up to about 1.1 µM and inactive = higher.

Experiments:
Experiment in all cases: DTP human tumour cell line panel, 48 h
[1] = tested on: OVCAR-5
[2] = tested on: HCT-15
[3] = tested on: K562
[4] = tested on: HOP-62
[5] = tested on: U-251
[6] = tested on: MDA-MB-435
[7] = tested on: MCF7
[8] = tested on: TK-10
[9] = tested on: NCI-H460
[10] = tested on: CAKI-1
[11] = tested on: OVCAR-4
[12] = tested on: HCC 2998
[13] = tested on: ACHN
[14] = tested on: IGROV-1
[15] = tested on: NCI-H522
[16] = tested on: RPMI-8226
[17] = tested on: SK-MEL-2
[18] = tested on: NCI-H23
[19] = tested on: HCT-116
[20] = tested on: SN12C
[21] = tested on: OVCAR-3
[22] = tested on: M14
[23] = tested on: SF-295
[24] = tested on: UACC-257
[25] = tested on: MDA-N
[26] = tested on: BT-549
[27] = tested on: SF-268
[28] = tested on: MDA-MB-231
[29] = tested on: NCI/ADR-RES
[30] = tested on: SK-MEL-28
[31] = tested on: UACC-62
[32] = tested on: Hs-578T
[33] = tested on: OVCAR-8
[34] = tested on: HT-29
[35] = tested on: SNB-19
[36] = tested on: SK-OV-3
[37] = tested on: HL-60
[38] = tested on: A549
[39] = tested on: SW-620
[40] = tested on: SK-MEL-5
[41] = tested on: SNB-75
[42] = tested on: KM12
[43] = tested on: SF-539
[44] = tested on: 786-0
[45] = tested on: MOLT-4
[46] = tested on: CCRF-CEM
[47] = tested on: UO-31
[48] = tested on: DU-145
[49] = tested on: EKVX
[50] = tested on: LOX IMVI
[51] = tested on: COLO 205
[52] = tested on: SR
[53] = tested on: PC-3
[54] = tested on: A498
[55] = tested on: HOP-92
[56] = tested on: RXF 393
[57] = tested on: Malme-3M
[58] = tested on: NCI-H226

Measured: GI50

Cc1ccccc1-c1nc2c(N)nc(N)nc2nc1N
active: [3] 0.723 µM
inactive: [1] 39.9 µM | [4] 25.9 µM | [5] 4.33 µM | [6] 5.36 µM | [7] 30.2 µM | [8] > 100 µM | [9] 3.69 µM | [10] 9.35 µM | [11] > 100 µM | [12] 25.2 µM | [13] 5.6 µM | [14] 6.82 µM | [15] 22.6 µM | [16] > 100 µM | [17] > 100 µM | [18] 4.95 µM | [19] 1.67 µM | [20] 6.84 µM | [21] > 100 µM | [22] > 100 µM | [23] 12.8 µM | [24] 86.3 µM | [25] 4.56 µM | [26] > 100 µM | [27] 8.38 µM | [28] 3.3 µM | [29] 27 µM | [30] 67.9 µM | [31] 4.91 µM | [32] > 100 µM | [33] 14.1 µM | [34] > 100 µM | [35] 44.3 µM | [36] > 100 µM | [37] > 100 µM | [38] 3.22 µM | [39] 4.86 µM | [40] > 100 µM | [41] 22.3 µM | [42] 29.8 µM | [43] 22.5 µM | [44] 7.23 µM | [45] 3.77 µM | [46] 4.74 µM | [47] 12 µM | [48] 8.17 µM | [49] 38.1 µM | [50] 3.44 µM | [51] 25.5 µM | [52] 62.7 µM | [53] 4.46 µM
4.15 µM: [2]

CCOC(=O)C1(C)CCCc2sc(N)c(C#N)c21 (stereo not drawn)
> 100 µM: [2]
inactive: [1] > 100 µM | [3] > 100 µM | [4] > 100 µM | [5] > 100 µM | [7] > 100 µM | [8] > 100 µM | [9] > 100 µM | [54] > 100 µM | [12] > 100 µM | [13] > 100 µM | [14] > 100 µM | [16] > 100 µM | [17] > 100 µM | [18] > 100 µM | [19] > 100 µM | [20] > 100 µM | [55] > 100 µM | [22] > 100 µM | [56] > 100 µM | [24] > 100 µM | [25] > 100 µM | [26] > 100 µM | [28] > 100 µM | [57] > 100 µM | [30] > 100 µM | [31] > 100 µM | [32] > 100 µM | [33] > 100 µM | [34] > 100 µM | [35] > 100 µM | [37] > 100 µM | [38] > 100 µM | [39] > 100 µM | [40] > 100 µM | [41] 69 µM | [42] > 100 µM | [44] > 100 µM | [45] > 100 µM | [47] > 100 µM | [49] > 100 µM | [58] > 100 µM | [51] > 100 µM | [52] > 100 µM | [53] > 100 µM
